Source: patent US10081628B2, “Apoptosis-inducing agents for the treatment of cancer and immune and autoimmune diseases” (AbbVie Inc., priority 2013, dated 2018)
Where two headings read alike, the source gives them in different places.

Columns and labels:
[1] = test system: RS4;11 cells; settings: Blood, 2008, Vol. 111, 2300-2309; cited from earlier work
[2] = molecular target: GST-Bcl-2 (Homo sapiens, UniProt P10415); experiment: TR-FRET Bcl-2 binding assay (F-Bak peptide probe); settings: GST-Bcl-2 1 nM, F-Bak peptide probe 100 nM, Tb-anti-GST 1 nM; Wang's equation; '<' = below limit of detection
Sequence of GST-Bcl-2 (P10415 whole entry): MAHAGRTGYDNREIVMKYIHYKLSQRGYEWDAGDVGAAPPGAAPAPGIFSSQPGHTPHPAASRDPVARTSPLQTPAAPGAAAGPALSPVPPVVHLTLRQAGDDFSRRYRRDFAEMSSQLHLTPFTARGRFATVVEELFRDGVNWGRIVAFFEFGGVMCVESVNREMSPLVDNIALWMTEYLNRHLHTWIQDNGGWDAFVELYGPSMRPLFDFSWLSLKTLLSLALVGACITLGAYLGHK
Summary of the method: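 Competitive TR-FRET displacement of F-Bak peptide probe from GST-Bcl-2 detected with Tb-anti-GST antibody; compounds serially diluted in DMSO from 50 μM (2× starting concentration). Mixtures incubated 3 h at room temperature, read at 340 nm excitation with 520 and 495 nm emission. Ki derived by Wang's equation.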

[3] = test system: RS4;11 cells; experiment: RS4;11 cell viability assay (CellTiter Glo); type: cell-based; settings: 10% human serum, 48 hours
Summary of the method: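 Cells seeded at 50,000 per well and exposed to compounds for 48 h at 37 C, 5% CO2 in the presence of 10% human serum. Viability read by CellTiter Glo; EC50 derived from percentage of viable cells versus untreated controls.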

[4] = test system: lymphocytes; experiment: Lymphocyte reduction in C57BL/6 mice; type: in vivo; settings: Mus musculus, ip
Summary of the method: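 C57Bl/6 mice dosed intraperitoneally at 30 mg/kg daily for four days. Blood cell counts by hematology analyzer 24 hours after first and last doses; exposure (AUC) from samples at 1, 6, 10 and 24 hours after last dose.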

Row | SMILES | sensitivity of RS4;11 cells to the Bcl-2 family member inhibitor [1] | Ki [2] [nM] | EC50 [3] [nM] | inhibition at 30 mg/kg ([4]; 30 mg/kg intraperitoneal every day for four days, 24 hours after the last dose, read-out: Lymphocyte reduction % inh. day 4) [%] | inhibition at 30 mg/kg ([4]; 30 mg/kg intraperitoneal every day, 24 hours after the first dose, read-out: Lymphocyte reduction % inh. day 1) [%]
1 | CN(C)CC[C@H](CSc1ccccc1)Nc1ccc(S(=O)(=O)NC(=O)c2ccc(N3CCN(Cc4ccccc4-c4ccc(Cl)cc4)CC3)cc2)cc1[N+](=O)[O-] [ABT-737, N-(4-(4-((4′-chloro(1,1′-biphenyl)-2-yl)methyl)piperazin-1-yl)benzoyl)-4-(((1R)-3-(dimethylamino)-1-((phenylsulfanyl)methyl)propyl)amino)-3-nitrobenzenesulfonamide] | sensitive |  |  |  | 
2 | CC1(C)CCC(CN2CCN(c3ccc(C(=O)NS(=O)(=O)c4ccc(NCC5(C#N)CCOCC5)c([N+](=O)[O-])c4)c(Oc4cnc5[nH]ccc5c4)c3)CC2)=C(c2ccc(Cl)cc2)C1 [Example 46, 4-(4-{[2-(4-chlorophenyl)-4,4-dimethylcyclohex-1-en-1-yl]methyl}piperazin-1-yl)-N-[(4-{[(4-cyanotetrahydro-2H-pyran-4-yl)methyl]amino}-3-nitrophenyl)sulfonyl]-2-(1H-pyrrolo[2,3-b]pyridin-5-yloxy)benzamide] |  | < 0.1 | 6.9 | 35 | 46
